According to PubChem BioAssay AID2060501 (Molecular Pharmacology Branch, DTP, NCI, 2025):
“And” between values parts separate entries of the source, which are not always exact repeats. Equal values may be shown once.

Tested on: 282377-053-R-J1-PDC complex spheroids, viability
Experiment: Anticancer human tumor 282377-053-R-J1-PDC patient-derived colon adenocarcinoma cell line growth inhibition [GQUAD]
Details: for viability, T/C: stronger effect = lower value; for IC50: curve of compound
Description: DNA G-quadruplex Stabilizer Agents in Combinations in Complex Spheroids
A high-throughput screen of multi-cell type tumor spheroids was designed to identify active combinations of DNA G-quadruplex stabilizer agents and targeted small molecules. Complex spheroids include a stromal component modeled by human endothelial cells (HUVEC) and fibroblasts modeled by human mesenchymal stem cells (MSCs). The concentration ranges selected for each drug and investigational agent were based upon clinically achievable concentrations if the clinical Cmax of the agent was known.
Compounds. The drugs and investigational agents: pidnarulex (CX-5461; NSC782164), APTO-253 (NSC789042), BRACO-19 (NSC847499), peposertib (NSC802822), ceralasertib (NSC780249), elimusertib (NSC800525), camonsertib (NSC841442), AZD-1390 (NSC803789), olaparib (NSC753686), talazoparib (NSC767125), ART-558 (NSC835418), sotorasib (NSC818433), MRTX-1133 (NSC836407), SN-38 (NSC673596), topotecan (NSC609699), etoposide (NSC141540), doxorubicin (NSC123127), gemcitabine (NSC613327), 5-fluorouracil (NSC19893), paclitaxel (NSC125973), vemurafenib (NSC761431), panobinostat (NSC761190), R-306465 (JNJ-16241199; NSC773264), adavosertib (NSC754352), TP-3654 (NSC805149), carboplatin (NSC241240), KSQ-4279 (NSC840948), and staurosporine (NSC755774) were obtained from the National Cancer Institute (NCI) Developmental Therapeutics Program Chemical Repository (34). The FDA-approved anticancer drug set is available from the NCI Developmental Therapeutics Program. […] The stock solutions were prepared in dimethyl sulfoxide (DMSO, Sigma-Aldrich, St. Louis, MO, cat. D2650) at 800-fold the tested concentration and stored at -70 degrees C prior to their use. All drugs and investigational agents were tested over a range starting from a high concentration at or near the clinical Cmax and decreasing in half-log increments. If the clinical Cmax for an agent had not been determined, the highest concentration tested was 10 microM.
2.3 Cell Culture. All cells were maintained in an incubator at 37 degrees C and 5% CO2 with 95% humidity. The PDC lines were cultured according to standard operating procedures established by the NCI PDMR. All PDCs were thawed and cultured in Matrigel-coated flasks prepared with a working solution of 1X Ham's F-12 nutrient mix, without supplementation (Invitrogen, cat. 11765054), 100 U/mL penicillin-streptomycin (Invitrogen, cat. 15140122), and 2.5% Matrigel (Corning Inc., cat. 354248) for the first three passages. The 857933-349-R-J2-PDC line was cultured in 6C/Colon 1B media, which includes advanced DMEM/F-12 (Thermo Fisher Scientific, cat. 12634028), 10 mM HEPES (Thermo Fisher Scientific, cat. 15630080), 1X GlutaMAX supplement (Thermo Fisher Scientific, cat. 35050061), 0.1 mg/mL primocin (InvivoGen, cat. ant-pm-2), 10% defined fetal bovine serum, heat inactivated (HyClone Laboratories Inc., cat. SH30070.03HI), 50% L-WRN conditioned media (ATCC, cat. CRL-3276), 1.25 mM N-Acetyl-L-cysteine (Sigma-Aldrich, cat. A9165), 10 mM nicotinamide (Sigma-Aldrich, cat. N0636), 1X B-27 supplement (Thermo Fisher Scientific, cat. 17504044), 1X N-2 supplement (Thermo Fisher Scientific, cat. 17502048), 10 microM Y-27632 dihydrochloride (Tocris Bioscience, cat. 1254), and 50 ng/mL human EGF recombinant protein (Thermo Fisher Scientific, cat. PHG0311). The 485176-168-R4-J1-PDC line was cultured in Panc media, which includes all 6C/Colon 1B media components plus 100 ng/mL human FGF-10 (Thermo Fisher Scientific, cat. 100-26), 500 nM SB-431542 (Selleckchem, cat. S1067), and gastrin (Tocris, cat. 3006).
[…]
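Also: spheroids exposed to compounds for 7 days before readout.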
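For viability, T/C in this document: percent of vehicle DMSO control viability with 100% = untreated-like growth.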

IC50	Structure (SMILES)	viability, T/C (compound 0.0316 µM)	viability, T/C (compound 0.1 µM)	viability, T/C (compound 0.316 µM)	viability, T/C (compound 1 µM)	viability, T/C (compound 3.16 µM)	viability, T/C (compound 10 µM)	viability, T/C (compound 0.000999 µM)	viability, T/C (compound 0.00316 µM)	viability, T/C (compound 0.00999 µM)	viability, T/C (compound 0.0999 µM)
> 10000 nM and 2420 nM	C#Cc1c(F)ccc2cc(O)cc(-c3ncc4c(N5CC6CCC(C5)N6)nc(OCC56CCCN5CC(F)C6)nc4c3F)c12 (configuration not stated)	103% and 112% and 90.1%	102% and 93.9% and 80.2%	110% and 81.1% and 95.1%	86.2% and 90.6% and 93.1%	101% and 33.1% and 95.4%	82.8% and 42.6% and 77.7%				
> 10000 nM	C=CC(=O)N1CCN(c2nc(=O)n(-c3c(C)ccnc3C(C)C)c3nc(-c4c(O)cccc4F)c(F)cc23)C(C)C1 (configuration not stated)	114% and 108% and 103%	92.4% and 90.8% and 92.9%	104% and 91.5% and 93.6%	91.5% and 93.8% and 96.1%	105% and 95.6% and 103%	97.3% and 80.3% and 106%				
5010 nM and 1870 nM and 1780 nM	C=CCn1c(=O)c2cnc(Nc3ccc(N4CCN(C)CC4)cc3)nc2n1-c1cccc(C(C)(C)O)n1	88.3% and 90.1% and 98.2%	65.9% and 82.6% and 109%	65.6% and 85.4% and 103%	66.5% and 75% and 72.4%	72.8% and 29.1% and 28%	17.2% and 15.7% and 17.4%				
	CC(=O)O[C@H]1C(=O)[C@@]2(C)[C@H]([C@H](OC(=O)c3ccccc3)[C@]3(O)C[C@H](OC(=O)[C@H](O)[C@@H](NC(=O)c4ccccc4)c4ccccc4)C(C)=C1C3(C)C)[C@]1(OC(C)=O)CO[C@@H]1C[C@@H]2O	114% and 62.1% and 42.4%	98.5% and 13.8% and 13.7%	89% and 15.7% and 17%	4.35% and 20.7% and 17.9%	0.15% and 21.9% and 16.7%					
> 10000 nM and 2380 nM and 1590 nM	CC(C)(O)C1CCC(Nc2ccc3ncc(-c4cccc(C(F)(F)F)c4)n3n2)CC1 (configuration not stated)	95.4% and 108% and 93.2%	77.4% and 81.7% and 98.5%	107% and 80.8% and 81.9%	96.5% and 87.1% and 71.6%	101% and 33.2% and 13.8%	95% and 42.3% and 22.1%				
> 10000 nM	CC(C)n1c(=O)n(C)c2cnc3cc(F)c(-c4ccc(OCCCN5CCCCC5)nc4)cc3c21	104% and 100% and 77.6%	107% and 87.5% and 98.7%	94.4% and 95.6% and 105%	94.8% and 106% and 92.8%	102% and 97.1% and 111%	113% and 80.3% and 102%				
696 nM and 555 nM and 247 nM	CC1COCCN1c1cc(-c2ccnn2C)c2ccnc(-c3ccn[nH]3)c2n1 (configuration not stated)	76.8% and 96.3% and 95.7%	80.2% and 78.9% and 53%	61.4% and 49% and 55.4%	43.9% and 49.3% and 38.2%	29.3% and 33% and 26.9%	20.9% and 28.2% and 23.2%				
491 nM and 478 nM and 530 nM	CC1COCCN1c1cc(C2(O)CC3CCC(C2)O3)c2cnn(-c3ccn[nH]3)c2n1 (configuration not stated)	80.7% and 77.9% and 79.5%	70% and 87.8% and 83.6%	61.8% and 55.8% and 62.1%	33.2% and 34.6% and 34.8%	24.2% and 20.5% and 35.2%	16.9% and 16.5% and 24.2%				
8360 nM and > 10000 nM	CC1COCCN1c1cc(C2(S(C)(=N)=O)CC2)nc(-c2ccnc3[nH]ccc23)n1 (configuration not stated)	96.3% and 86.8% and 105%	101% and 80.1% and 81.3%	100% and 97.5% and 101%	62.2% and 81.9% and 77.9%	86.1% and 70.7% and 78.6%	42.4% and 60.9% and 49.9%				
1890 nM and 4980 nM and 4340 nM	CCCS(=O)(=O)Nc1ccc(F)c(C(=O)c2c[nH]c3ncc(-c4ccc(Cl)cc4)cc23)c1F	117% and 88.2% and 74.2%	76.3% and 55.9% and 63.7%	90.1% and 68.8% and 55.6%	75.6% and 74.8% and 57.6%	29.3% and 72.3% and 66.7%	17.7% and 16.4% and 14.4%				
> 316 nM	CC[C@@]1(O)C(=O)OCc2c1cc1n(c2=O)Cc2cc3c(CN(C)C)c(O)ccc3nc2-1	89.3% and 95.4% and 117%		57.4% and 106% and 60.5%				98.2% and 99.2% and 107%	92.4% and 87.1% and 103%	106% and 101% and 87.3%	84% and 109% and 93.1%
38.4 nM and 178 nM and 54.6 nM	CCc1c2c(nc3ccc(O)cc13)-c1cc3c(c(=O)n1C2)COC(=O)[C@]3(O)CC	50.7% and 73% and 63.6%		29.2% and 39% and 30.2%				87.9% and 100% and 111%	81.8% and 80.9% and 91%	67.7% and 93.2% and 67%	40.8% and 61.3% and 40.1%
